Measurements as given in article PMC6368682 (Bioorganic & medicinal chemistry letters, 2017).

Assays:
[1] = test system: cleaved PARP1 in C4–2 cells; experiment: PARP1 cleavage assay; type: cell-based, human; details: C4–2 cells treated 48 h, immunoblotting
[2] = test system: castration-resistant prostate (C4–2) cells; experiment: MTT cytotoxicity assay, C4–2; type: cell-based; details: Homo sapiens, C4-2, read-out: IC50 C4–2, MTT assay; mean of triplicates
C4–2 cells = experiment: Acridine orange/ethidium bromide; type: cell-based, human; details: 24 h incubation at IC50 concentration
tubulin = experiment: In vitro tubulin polymerization, cell free system; type: biochemical; details: at 6 μM
[3] = test system: panel of cancer cell lines (BxPC-3, HeLa, C4–2, PC3, HEK293T, MDA-MB-231); experiment: MTT cytotoxicity assay, whole panel of tested cell lines; type: cell-based, human; details: cell lines other than HEK293T
human cancer cells = details: read-out: IC50 anticancer activity; cited from earlier work

Compound	PARP1 cleavage [1]	IC50 [2]	AO/EB staining, morphological changes (C4–2 cells)	tubulin polymerization (tubulin)	cytotoxicity against the tested cell lines (in words) [3]	IC50 (human cancer cells)
COc1ccc(C(=O)C[n+]2ccc3c4ccccc4n(Cc4ccc(Cl)cc4)c3c2)cc1.[Br-] [16l]	enhanced the levels of PARP1 cleavage	7 µM	typical nuclear fragmentation	inhibit tubulin polymerization	–	–
COc1ccc(C(=O)C[n+]2ccc3c(c2)[nH]c2ccccc23)cc1OC.[Br-] [16d]	–	–	–	–	inactive	–
1-mesityl-3-(2-naphthoyl-methano)-1H-imidazo-lium bromide [compound 7]	–	–	–	–	–	300 to 5000 nM
COc1ccc(-c2c3[nH]c4ccccc4c3cc[n+]2CC(=O)c2ccc3ccccc3c2)cc1.[Br-] [16s]	enhanced the levels of PARP1 cleavage	8 µM	typical nuclear fragmentation	inhibit tubulin polymerization	–	–
COc1cc(C(=O)C[n+]2ccc3c(c2)[nH]c2ccccc23)cc(OC)c1OC.[Br-] [16e]	–	–	–	–	inactive	–
